Test results: PubChem BioAssay AID1963425 (Molecular Pharmacology Branch, DTP, NCI, 2024)

Tested on: 323965-272-R-J2-PDC complex spheroid growth, % test/control
Experiment: Anticancer human tumor 323965-272-R-J2-PDC patient-derived pancreatic carcinoma cell line growth inhibition [Asc]
Conditions: for IC50: curve of first compound; for viability, T/C: stronger effect = lower value
In short: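 Complex spheroids combining tumor cells with HUVEC endothelial cells and human MSCs, at 37 degrees C, 5% CO2; agents tested alone or combined, half-log dilutions from at or near clinical Cmax, or 10 microM if Cmax unknown.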
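Also: compound exposure lasted 7 days starting three days after spheroid seeding.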
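For viability, T/C in this document: 100% = DMSO vehicle control wells with viability set relative to vehicle.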

Cc1nc(N2CCC3(CC2)COC(C)C3N)c(CO)nc1Sc1ccnc(N)c1Cl (centres undefined) + Cc1c(S(C)(=O)=O)c(-c2cc(F)cc(N3CCN(c4ccc(NS(=O)(=O)c5ccc(NC(CCN6CCC(C(=O)OCCCP(=O)(O)O)CC6)CSc6ccccc6)c(S(=O)(=O)C(F)(F)F)c5)cc4)CC3)c2)c(-c2ccc(Cl)cc2)n1C(C)C
IC50 (second compound 0.0316 µM): 1610 nM | IC50 (second compound 0.1 µM): 981 nM | IC50 (second compound 0.316 µM): 809 nM | IC50 (second compound 1 µM): 281 nM | IC50 (second compound 3.16 µM): 85.9 nM | IC50 (second compound 10 µM): 59.2 nM | viability, T/C (second compound 0.0316 µM, first compound 0.00949 µM): 92.9% | viability, T/C (second compound 0.0316 µM, first compound 0.03 µM): 87.9% | viability, T/C (second compound 0.0316 µM, first compound 0.0949 µM): 79.6% | viability, T/C (second compound 0.0316 µM, first compound 0.3 µM): 67.8% | viability, T/C (second compound 0.0316 µM, first compound 0.949 µM): 54.9% | viability, T/C (second compound 0.0316 µM, first compound 3 µM): 44.2% | viability, T/C (second compound 0.1 µM, first compound 0.00949 µM): 105% | viability, T/C (second compound 0.1 µM, first compound 0.03 µM): 96.2% | viability, T/C (second compound 0.1 µM, first compound 0.0949 µM): 70.6% | viability, T/C (second compound 0.1 µM, first compound 0.3 µM): 69% | viability, T/C (second compound 0.1 µM, first compound 0.949 µM): 49.1% | viability, T/C (second compound 0.1 µM, first compound 3 µM): 37.8% | viability, T/C (second compound 0.316 µM, first compound 0.00949 µM): 92.2% | viability, T/C (second compound 0.316 µM, first compound 0.03 µM): 87.2% | viability, T/C (second compound 0.316 µM, first compound 0.0949 µM): 76.1% | viability, T/C (second compound 0.316 µM, first compound 0.3 µM): 62.2% | viability, T/C (second compound 0.316 µM, first compound 0.949 µM): 48.5% | viability, T/C (second compound 0.316 µM, first compound 3 µM): 35.9% | viability, T/C (second compound 1 µM, first compound 0.00949 µM): 81% | viability, T/C (second compound 1 µM, first compound 0.03 µM): 78% | viability, T/C (second compound 1 µM, first compound 0.0949 µM): 64.8% | viability, T/C (second compound 1 µM, first compound 0.3 µM): 48.9% | viability, T/C (second compound 1 µM, first compound 0.949 µM): 36.1% | viability, T/C (second compound 1 µM, first compound 3 µM): 28.1% | viability, T/C (second compound 3.16 µM, first compound 0.00949 µM): 72.8% | viability, T/C (second compound 3.16 µM, first compound 0.03 µM): 64.3% | viability, T/C (second compound 3.16 µM, first compound 0.0949 µM): 45.8% | viability, T/C (second compound 3.16 µM, first compound 0.3 µM): 37.6% | viability, T/C (second compound 3.16 µM, first compound 0.949 µM): 29.6% | viability, T/C (second compound 3.16 µM, first compound 3 µM): 19.6% | viability, T/C (second compound 10 µM, first compound 0.00949 µM): 73.3% | viability, T/C (second compound 10 µM, first compound 0.03 µM): 59.3% | viability, T/C (second compound 10 µM, first compound 0.0949 µM): 41.7% | viability, T/C (second compound 10 µM, first compound 0.3 µM): 34.5% | viability, T/C (second compound 10 µM, first compound 0.949 µM): 23.2% | viability, T/C (second compound 10 µM, first compound 3 µM): 15%

O=C(c1ccc(F)c(F)c1Nc1ccc(I)cc1F)N1CC(O)([C@@H]2CCCCN2)C1 + CNC(C)C(=O)NC1CN(S(=O)(=O)c2cccc(S(=O)(=O)N3CCC4CCC(C(=O)NC(c5ccccc5)c5ccccc5)N4C(=O)C(NC(=O)C(C)NC)C3)c2)CCC2CCC(C(=O)NC(c3ccccc3)c3ccccc3)N2C1=O
IC50 (second compound 0.00316 µM): 97.8 nM | IC50 (second compound 0.01 µM): 77.1 nM | IC50 (second compound 0.0316 µM): 80.6 nM | IC50 (second compound 0.1 µM): 92.4 nM | IC50 (second compound 0.316 µM): 70.6 nM | IC50 (second compound 1 µM): 53.5 nM | viability, T/C (second compound 0.00316 µM, first compound 0.00316 µM): 117% | viability, T/C (second compound 0.00316 µM, first compound 0.01 µM): 99.1% | viability, T/C (second compound 0.00316 µM, first compound 0.0316 µM): 77.5% | viability, T/C (second compound 0.00316 µM, first compound 0.1 µM): 50.1% | viability, T/C (second compound 0.00316 µM, first compound 0.316 µM): 27.3% | viability, T/C (second compound 0.00316 µM, first compound 1 µM): 18.5% | viability, T/C (second compound 0.01 µM, first compound 0.00316 µM): 105% | viability, T/C (second compound 0.01 µM, first compound 0.01 µM): 90.3% | viability, T/C (second compound 0.01 µM, first compound 0.0316 µM): 60.8% | viability, T/C (second compound 0.01 µM, first compound 0.1 µM): 47.7% | viability, T/C (second compound 0.01 µM, first compound 0.316 µM): 28.2% | viability, T/C (second compound 0.01 µM, first compound 1 µM): 13.2% | viability, T/C (second compound 0.0316 µM, first compound 0.00316 µM): 94.5% | viability, T/C (second compound 0.0316 µM, first compound 0.01 µM): 96.3% | viability, T/C (second compound 0.0316 µM, first compound 0.0316 µM): 64.3% | viability, T/C (second compound 0.0316 µM, first compound 0.1 µM): 47.9% | viability, T/C (second compound 0.0316 µM, first compound 0.316 µM): 25.7% | viability, T/C (second compound 0.0316 µM, first compound 1 µM): 14.4% | viability, T/C (second compound 0.1 µM, first compound 0.00316 µM): 102% | viability, T/C (second compound 0.1 µM, first compound 0.01 µM): 90.9% | viability, T/C (second compound 0.1 µM, first compound 0.0316 µM): 81.6% | viability, T/C (second compound 0.1 µM, first compound 0.1 µM): 46.4% | viability, T/C (second compound 0.1 µM, first compound 0.316 µM): 23.6% | viability, T/C (second compound 0.1 µM, first compound 1 µM): 13.1% | viability, T/C (second compound 0.316 µM, first compound 0.00316 µM): 110% | viability, T/C (second compound 0.316 µM, first compound 0.01 µM): 82.8% | viability, T/C (second compound 0.316 µM, first compound 0.0316 µM): 71.5% | viability, T/C (second compound 0.316 µM, first compound 0.1 µM): 41.8% | viability, T/C (second compound 0.316 µM, first compound 0.316 µM): 22% | viability, T/C (second compound 0.316 µM, first compound 1 µM): 11.3% | viability, T/C (second compound 1 µM, first compound 0.00316 µM): 92.8% | viability, T/C (second compound 1 µM, first compound 0.01 µM): 85.6% | viability, T/C (second compound 1 µM, first compound 0.0316 µM): 57.3% | viability, T/C (second compound 1 µM, first compound 0.1 µM): 39% | viability, T/C (second compound 1 µM, first compound 0.316 µM): 18.8% | viability, T/C (second compound 1 µM, first compound 1 µM): 9.3%
